Results reported in patent US20240228481A1, “NOVEL SULFONAMIDE SERIES OF QR2 INHIBITORS TO TACKLE OXIDATIVE STRESS AND COGNITIVE DECLINE” (CARMEL HAIFA UNIVERSITY ECONOMIC CORPORATION LTD., priority 2021, published 2024).
Where a name gives a salt, the structure may show the parent alone.

What was measured:
[1] = Solubility in water; format: physicochemical; conditions: HCl salt
Excerpt: In order to enable water-solubility so that an inhibitor could be easily applied to crystalized QR2, and to enable oral administration of the inhibitor and eliminate undesirable formulations, HCl was conjugated to YB-537 (see step 6 in methods section ‘Synthesis of Novel QR2 Inhibitors’ and Table 3). […] Using the water-soluble YB-537 to determine ligand-target interactions, purified human QR2 was co-crystalized in the presence of the inhibitor (FIG. 3A). […] YB-537 is bound to each of the monomers, and interacts with amino acids from both monomers, as well as with FAD. The plane of YB-537 stacks up parallel to the isoalloxazine ring of the FAD and the average distance between the planes of the two rings is 3.5 Å. Each FAD moiety forms 17 contacts within 3.5 Å to atoms from YB-537 and 48 contacts to 17 amino acids from one monomer, namely—H12, S17, F18, N19, S21, P103, L104, Y105, W106, F107, T148, T149, G150, G151, Y156, E194, and R201. YB-537 binds to the catalytic site through a series of hydrophobic and hydrogen bonds with both FAD and amino acids from both QR2 monomers, in a manner unique to it (FIG. 3B). Specifically, YB-537 forms 6 contacts to G150, G151, M155 and a hydrogen bond with N162 from one monomer (A) and 8 contacts to F127, 1129, F132, and F179 from the other monomer (B).

[2] = system: 5×FAD mice; assay: Delay fear conditioning in 5×FAD mice
Procedure: Mice are transported to the conditioning room, which is lit by red light only, and kept there for 2 min. They were then placed inside a Habitest Operant Cage, within a Habitest Isolation Cubicle (Coulbourn), on a modular shock floor made of 16 metal grids, connected to Precision Animal Shockers (Coulbourn) with illumination inside the cage coming from a 20 W bulb. The mice were given 2 min to explore, during which baseline freezing was measured. Then, a 20 s, 4 kHz, 80 dB tone was given, co-terminating with the start of a 2 s, 0.5 mA foot-shock, which was repeated a further two times, each having 1 min interval. Following the third, and last of these bouts, 1 min was given prior to the animals being removed from the chambers. The next day, the animals were returned to the room under the same conditions, and were placed back into the chambers, and freezing to the context was measured over the course of 5 min. The next day, the mice were once again returned to the conditioning room, except the room was lit with white light, while the chambers were darkened, the chamber floor was covered with a flat, smooth plastic cover, one of the walls was fitted with a paper sticker and the chamber was scented with diluted (10%) window cleaner (Sano). In this unfamiliar context, the protocol from the first day was repeated, except without the foot-shocks. Freezing for the cue was recorded during the tone. All measurements were taken with a Sentec stc-tb33usb-at camera, and analysis was performed with Freeze Frame software (Actimetrics).

[3] = in vitro; conditions: human
[4] = Pharmacokinetic study, p.o. and i.v.; format: in vivo, mouse
[5] = biological target: T1, QR1 (NQO1) (Homo sapiens, UniProt P15559); assay: Selectivity assay with QR1 in place of QR2, absorbance readout; format: biochemical
T1 construct: purchased Sigma-Aldrich

[6] = Cell toxicity assay (ATP depletion, CellTiter Glo); conditions: human
[7] = biological target: T2, QR2 (Homo sapiens, UniProt P16083); assay: QR2 enzymatic activity assay (menadione/BNAH), absorbance readout at 350 nm; format: biochemical; parameters: purchased Sigma-Aldrich
T2 sequence (P16083 1-231): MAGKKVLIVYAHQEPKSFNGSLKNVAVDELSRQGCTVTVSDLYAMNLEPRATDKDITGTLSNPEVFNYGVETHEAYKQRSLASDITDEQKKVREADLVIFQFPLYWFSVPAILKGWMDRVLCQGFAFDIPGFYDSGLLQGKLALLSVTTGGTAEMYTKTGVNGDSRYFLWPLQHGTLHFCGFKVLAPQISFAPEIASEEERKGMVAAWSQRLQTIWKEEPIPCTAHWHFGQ

T1 sequence (P15559 whole entry): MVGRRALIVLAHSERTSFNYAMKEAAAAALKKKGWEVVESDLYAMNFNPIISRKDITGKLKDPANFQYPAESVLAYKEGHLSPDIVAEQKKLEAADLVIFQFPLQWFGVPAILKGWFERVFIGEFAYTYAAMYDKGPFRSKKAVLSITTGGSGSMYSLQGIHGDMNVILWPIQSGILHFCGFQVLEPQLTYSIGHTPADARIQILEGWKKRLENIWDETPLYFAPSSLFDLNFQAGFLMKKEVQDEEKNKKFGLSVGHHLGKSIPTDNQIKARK

Row | SMILES | solubility in water [1] | freezing in response to the conditioned cue ([2]; 5×FAD both sexes) | freezing in response to the conditioned cue ([2]; 5×FAD females) | baseline freezing in conditioning chambers ([2]; 5×FAD males) | freezing in response to the conditioned context ([2]; 5×FAD males) | freezing in response to the conditioned cue ([2]; 5×FAD males) | IC50 at 72 h [3] | half-life ([4]; C57BL/6J, mouse, in vivo, po, p.o. 50 mg/kg, male mice, read-out: clearance rate half-life) | brain clearance half-life ([4]; acute oral dosing, mouse brain) | peak concentration in brain ([4]; male, C57BL/6J, mouse, in vivo, po) | bioavailability ([4]; p.o. 50 mg/kg, male mice) | brain clearance half-life ([4]; p.o., male mouse brain) | time of peak in brain following p.o. administration ([4]; p.o., male mouse brain) | IC50 [5] | IC50 at 72 h [6] | IC50 [7]
1 | Cc1ccc(-c2cn3cccc(C)c3n2)cc1S(=O)(=O)N1CCNCC1 [YB-537, 8-methyl-2-(4-methyl-3-(piperazin-1-ylsulfonyl)phenyl)imidazo[1,2-a]pyridine hydrochloride] | complete solution | 16.47±1.689% | 12.66±1.739% | 0.642±0.408% | 39.51±2.666% | 19.43±2.289% | > 99 µM | 1 h | ~1 h | 203 ng/g | 82% | 1.06 h | ~1 h | – | – | –
2 | Cc1cccn2cc(-c3cccc(S(=O)(=O)N4CCC(C)CC4)c3)nc12 [YB-800] | – | – | – | – | – | – | – | – | – | – | – | – | – | > 9.99 µM | 78.4 µM | 0.02 µM
